Molecules are shown by their SMILES. Counter-ions that a name gives are not always drawn.

This is an account of results in patent US10538495B2, “Modulators of indoleamine 2,3-dioxygenase” (GLAXOSMITHKLINE INTELLECTUAL PROPERTY DEVELOPMENT LIMITED, priority 2016, dated 2020).

Chain of indoleamine 2,3-dioxygenase (IDO1) (P14902 whole entry): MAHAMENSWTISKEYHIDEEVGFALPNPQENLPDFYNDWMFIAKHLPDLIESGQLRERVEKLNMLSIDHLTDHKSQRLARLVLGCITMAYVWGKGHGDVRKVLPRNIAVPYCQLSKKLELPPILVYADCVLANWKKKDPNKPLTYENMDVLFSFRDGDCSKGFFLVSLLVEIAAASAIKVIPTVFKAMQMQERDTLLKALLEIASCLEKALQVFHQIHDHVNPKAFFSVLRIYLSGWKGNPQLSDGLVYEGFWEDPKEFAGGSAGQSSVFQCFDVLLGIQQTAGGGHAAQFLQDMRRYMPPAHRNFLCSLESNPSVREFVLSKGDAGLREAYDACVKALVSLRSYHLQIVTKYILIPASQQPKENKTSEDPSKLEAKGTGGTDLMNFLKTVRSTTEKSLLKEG

This test addresses indoleamine 2,3-dioxygenase (IDO1) (Homo sapiens, UniProt P14902). Briefly: HeLa IDOi assay (kynurenine by mass spectrometry). The format is cell-based. Also on record: human epithelial HeLa cells (CCL-2; host or cells: HeLa cells stimulated with human IFN-γ. The following applies: IFN-γ stimulated HeLa cells, 2 days, kynurenine detected by mass spectrometry; read-out: HeLa pIC50 (converted). Here is the method:
Brief descriptions of the cellular assays are provided following the table.
Compounds of the present invention were tested via high-throughput cellular assays utilizing detection of kynurenine via mass spectrometry and cytotoxicity as end-points. For the mass spectrometry and cytotoxicity assays, human epithelial HeLa cells (CCL-2; ATCC®, Manassas, Va.) were stimulated with human interferon-γ (IFN-γ) (Sigma-Aldrich Corporation, St. Louis, Mo.) to induce the expression of indoleamine 2,3-dioxygenase (IDO1). Compounds with IDO1 inhibitory properties decreased the amount of kynurenine produced by the cells via the tryptophan catabolic pathway. Cellular toxicity due to the effect of compound treatment was measured using CellTiter-Glo® reagent (CTG) (Promega Corporation, Madison, Wis.), which is based on luminescent detection of ATP, an indicator of metabolically active cells.
In preparation for the assays, test compounds were serially diluted 3-fold in DMSO from a typical top concentration of 5 mM and plated at 0.5 μL in 384-well, polystyrene, clear bottom, tissue culture treated plates with lids (Greiner Bio-One, Kremsmünster, Austria) to generate 11-point dose response curves. Low control wells (0% kynurenine or 100% cytotoxicity) contained either 0.5 μL of DMSO in the presence of unstimulated (−IFN-γ) HeLa cells for the mass spectrometry assay or 0.5 μL of DMSO in the absence of cells for the cytotoxicity assay, and high control wells (100% kynurenine or 0% cytotoxicity) contained 0.5 μL of DMSO in the presence of stimulated (+IFN-γ) HeLa cells for both the mass spectrometry and cytotoxicity assays.
Frozen stocks of HeLa cells were washed and recovered in DMEM high glucose medium with HEPES (Thermo Fisher Scientific, Inc., Waltham, Mass.) supplemented with 10% v/v certified fetal bovine serum (FBS) (Thermo Fisher Scientific, Inc., Waltham, Mass.), and 1× penicillin-streptomycin antibiotic solution (Thermo Fisher Scientific, Inc., Waltham, Mass.). The cells were diluted to 100,000 cells/mL in the supplemented DMEM medium. 50 μL of either the cell suspension, for the mass spectrometry assay, or medium alone, for the cytotoxicity assay, were added to the low control wells, on the previously prepared 384-well compound plates, resulting in 5,000 cells/well or 0 cells/well respectively. IFN-γ was added to the remaining cell suspension at a final concentration of 10 nM, and 50 μL of the stimulated cells were added to all remaining wells on the 384-well compound plates. The plates, with lids, were then placed in a 37° C., 5% CO2 humidified incubator for 2 days.
Following incubation, the 384-well plates were removed from the incubator and allowed to equilibrate to room temperature for 30 minutes. For the cytotoxicity assay, CellTiter-Glo® was prepared according to the manufacturer's instructions, and 10 μL were added to each plate well. After a twenty minute incubation at room temperature, luminescence was read on an EnVision® Multilabel Reader (PerkinElmer Inc., Waltham, Mass.). For the mass spectrometry assay, 10 μL of supernatant from each well of the compound-treated plates were added to 40 μL of acetonitrile, containing 10 μM of an internal standard for normalization, in 384-well, polypropylene, V-bottom plates (Greiner Bio-One, Kremsmünster, Austria) to extract the organic analytes. Following centrifugation at 2000 rpm for 10 minutes, 10 μL from each well of the acetonitrile extraction plates were added to 90 μL of sterile, distilled H2O in 384-well, polypropylene, V-bottom plates for analysis of kynurenine and the internal standard on the RapidFire 300 (Agilent Technologies, Santa Clara, Calif.) and 4000 QTRAP MS (SCIEX, Framingham, Mass.). MS data were integrated using Agilent Technologies' RapidFire Integrator software, and data were normalized for analysis as a ratio of kynurenine to the internal standard. […]
As to `CC(C)(C)Sc1ccc(-c2ccccc2-c2nn[nH]n2)cc1NC(=O)Cc1cnccn1` [Example 5, N-(4-(tert-butylthio)-2′-(2H-tetrazol-5-yl)-[1,1′-biphenyl]-3-yl)-2-(pyrazin-2-yl)acetamide], the IC50 is more than 10 µM. In the case of `CC(C)(C)Sc1ccc(-c2ccccc2-c2nn[nH]n2)cc1NC(=O)Cc1ccncc1` [Example 6, N-(4-(tert-butylthio)-2′-(2H-tetrazol-5-yl)-[1,1′-biphenyl]-3-yl)-2-(pyridin-4-yl)acetamide], the IC50 is 6.31 µM. Turning to `CC(C)(C)Sc1ccc(-c2ccccc2-c2nn[nH]n2)cc1NC(=O)Cc1ccc(C#N)cc1` [Example 7, N-(4-(tert-butylthio)-2′-(2H-tetrazol-5-yl)-[1,1′-biphenyl]-3-yl)-2-(4-cyanophenyl)acetamide], the IC50 was 5.01 µM. Under `Cc1cc(CC(=O)Nc2cc(-c3ccccc3-c3nn[nH]n3)ccc2SC(C)(C)C)on1` [Example 8, N-(4-(tert-butylthio)-2′-(2H-tetrazol-5-yl)-[1,1′-biphenyl]-3-yl)-2-(3-methylisoxazol-5-yl)acetamide] stands 6.31 µM; under `CC(C)(C)Sc1ccc(-c2ccccc2-c2nn[nH]n2)cc1NC(=O)Cc1cncnc1` [Example 9, N-(4-(tert-butylthio)-2′-(2H-tetrazol-5-yl)-[1,1′-biphenyl]-3-yl)-2-(pyrimidin-5-yl)acetamide], more than 10 µM; under `COCCCSc1ccc(-c2ccccc2-c2nn[nH]n2)cc1NC(=O)Cc1ccc(C)cc1` [Example 11, N-(4-((3-methoxypropyl)thio)-2′-(2H-tetrazol-5-yl)-[1,1′-biphenyl]-3-yl)-2-(p-tolyl)acetamide], 1 µM. Regarding `Cc1ccc(CC(=O)Nc2cc(-c3ccccc3-c3nn[nH]n3)ccc2SC2CCOCC2)cc1` [Example 12, N-(4-((tetrahydro-2H-pyran-4-yl)thio)-2′-(2H-tetrazol-5-yl)-[1,1′-biphenyl]-3-yl)-2-(p-tolyl)acetamide], the IC50 is 5.01 µM. On to `CC(C)(C)Sc1ccc(-c2ccccc2-c2nn[nH]n2)cc1NC(=O)CC1CC1` [Example 17, N-(4-(tert-butylthio)-2′-(2H-tetrazol-5-yl)-[1,1′-biphenyl]-3-yl)-2-cyclopropylacetamide], for which the IC50 is 2.51 µM.

Regarding `CC(C)(C)Sc1ccc(-c2ccccc2-c2nn[nH]n2)cc1NC(=O)CC1CCCCC1` [Example 18, N-(4-(tert-butylthio)-2′-(2H-tetrazol-5-yl)-[1,1′-biphenyl]-3-yl)-2-cyclohexylacetamide], the IC50 was 3.98 µM.

Consider `Cc1ccc(CC(=O)Nc2cc(-c3ccccc3-c3nn[nH]n3)ccc2SC(C)(C)C)cc1F` [Example 21, N-(4-(tert-butylthio)-2′-(2H-tetrazol-5-yl)-[1,1′-biphenyl]-3-yl)-2-(3-fluoro-4-methylphenyl)acetamide], for which the IC50 is 0.02 µM. Under `COc1ccc(CC(=O)Nc2cc(-c3ccccc3-c3nn[nH]n3)ccc2SC(C)(C)C)cc1` [Example 22, N-(4-(tert-butylthio)-2′-(2H-tetrazol-5-yl)-[1,1′-biphenyl]-3-yl)-2-(4-methoxyphenyl)acetamide] stands 0.0316 µM; under `COc1ccc(CC(=O)Nc2cc(-c3ccccc3-c3nn[nH]n3)ccc2SC(C)(C)C)cc1F` [Example 23, N-(4-(tert-butylthio)-2′-(2H-tetrazol-5-yl)-[1,1′-biphenyl]-3-yl)-2-(3-fluoro-4-methoxyphenyl)acetamide], 0.0631 µM; under `CC(C)(C)Sc1ccc(-c2ccccc2-c2nn[nH]n2)cc1NC(=O)Cc1ccc(F)cc1` [Example 24, N-(4-(tert-butylthio)-2′-(2H-tetrazol-5-yl)-[1,1′-biphenyl]-3-yl)-2-(4-fluorophenyl)acetamide], 0.398 µM.

Consider `CC(C)(C)Sc1ccc(-c2ccccc2-c2nn[nH]n2)cc1NC(=O)Cc1ccccc1` [Example 25, N-(4-(tert-butylthio)-2′-(2H-tetrazol-5-yl)-[1,1′-biphenyl]-3-yl)-2-phenylacetamide], for which the IC50 is 0.398 µM. Take `Cc1ccc(CC(=O)Nc2cc(-c3ccccc3-c3nn[nH]n3)ccc2SC(C)(C)C)nc1` [Example 26, N-(4-(tert-butylthio)-2′-(2H-tetrazol-5-yl)-[1,1′-biphenyl]-3-yl)-2-(5-methylpyridin-2-yl)acetamide]: the IC50 is 0.794 µM. Regarding `CC(C)(C)OC(=O)N1CCC(CC(=O)Nc2cc(-c3ccccc3-c3nn[nH]n3)ccc2SC(C)(C)C)CC1` [Example 29], the IC50 was 5.01 µM.

As for `CC(C)(C)Sc1ccc(-c2ccccc2-c2nn[nH]n2)cc1NC(=O)CC1CCNCC1` [Example 30, N-(4-(tert-butylthio)-2′-(2H-tetrazol-5-yl)-[1,1′-biphenyl]-3-yl)-2-(piperidin-4-yl)acetamide Hydrochloride], the IC50 is more than 10 µM. For `CC(=O)N1CCC(CC(=O)Nc2cc(-c3ccccc3-c3nn[nH]n3)ccc2SC(C)(C)C)CC1` [Example 31, 2-(1-Acetylpiperidin-4-yl)-N-(4-(tert-butylthio)-2′-(2H-tetrazol-5-yl)-[1,1′-biphenyl]-3-yl)acetamide], the IC50 is more than 10 µM. Regarding `CC(C)(C)Sc1ccc(-c2ccccc2-c2nn[nH]n2)cc1NC(=O)CC1CCN(S(C)(=O)=O)CC1` [Example 32, N-(4-(tert-butylthio)-2′-(2H-tetrazol-5-yl)-[1,1′-biphenyl]-3-yl)-2-(1-(methylsulfonyl)piperidin-4-yl)acetamide], the IC50 is more than 10 µM. Take `COCC(=O)Nc1cc(-c2ccccc2-c2nn[nH]n2)ccc1SC(C)(C)C` [Example 33, N-(4-(tert-butylthio)-2′-(2H-tetrazol-5-yl)-[1,1′-biphenyl]-3-yl)-2-methoxyacetamide]: the IC50 was 7.94 µM.

`CC(C)(C)Sc1ccc(-c2ccccc2-c2nn[nH]n2)cc1NC(=O)Cc1ccc2c(c1)OCO2` [Example 38, 2-(Benzo[d][1,3]dioxol-5-yl)-N-(4-(tert-butylthio)-2′-(2H-tetrazol-5-yl)-[1,1′-biphenyl]-3-yl)acetamide]: the IC50 is 0.1 µM. With `CC(C)(C)Sc1ccc(-c2ccccc2-c2nn[nH]n2)cc1Nc1nc(Cl)ns1` [Example 42, N-(4-(tert-butylthio)-2′-(2H-tetrazol-5-yl)-[1,1′-biphenyl]-3-yl)-3-chloro-1,2,4-thiadiazol-5-amine], the IC50 was 0.126 µM. In the case of `CC(CC(=O)O)c1ccc(SC(C)(C)C)c(Nc2nc(Cl)ns2)c1` (stereo not shown) [Example 45, 3-(4-(tert-Butylthio)-3-((3-chloro-1,2,4-thiadiazol-5-yl)amino)phenyl)butanoic Acid], the IC50 was 2.51 µM.

In the case of `Cc1ccc(CC(=O)Nc2cc(-c3ccccc3-c3nnn(COP(=O)(OC(C)(C)C)OC(C)(C)C)n3)ccc2SC(C)(C)C)cc1` [Example 49, di-tert-butyl ((5-(4′-(tert-butylthio)-3′-(2-(p-tolyl)acetamido)-[1,1′-biphenyl]-2-yl)-2H-tetrazol-2-yl)methyl) phosphate], the IC50 is 1 µM. Under `Cc1ccc(CC(=O)Nc2cc(-c3ccccc3-c3nnnn3COP(=O)(OC(C)(C)C)OC(C)(C)C)ccc2SC(C)(C)C)cc1` [Example 50, di-tert-butyl ((5-(4′-(tert-butylthio)-3′-(2-(p-tolyl)acetamido)-[1,1′-biphenyl]-2-yl)-1H-tetrazol-1-yl)methyl) phosphate] stands 0.126 µM.
